Test results taken from patent publication US8513310B2, “Cosmetic use of phytosphingosine as slimming agent and cosmetic compositions comprising phytosphingosine” (LVMH Recherche, priority 2002, dated 2013).

Key:
3T3-F442A adipocytes = assay: Leptin secretion by murine 3T3-F442A adipocytes in culture (ELISA on supernatants); type: cell-based, mouse; conditions: for increase in the secretion of leptin / stimulation of the leptin secretion: D21, versus control; for leptin (pg/mL) Average in culture supernatants: mature 3T3-F442A adipocytes, control 1510
Method: The principle of the test is to control the secretion of leptin by the adipocytes.
Culture of 3T3 F442A Cells
The 3T3 F442A preadipocytes are shown at D0 in 35 mm Petri dishes (Corning) and placed in an oven at 37° C. under an air-CO2 atmosphere (95-5). The cells are cultivated in an Eagle minimum essential medium modified according to Dulbecco (glucose 4.50 g/l) (DMEM-GIBCO BRL) supplemented with 5% of calf serum (CS) (BIOMEDIA®) and 5% of foetal calf serum (GIBCO) during the growth phase. The medium is changed at D2 and D4.
At the cell confluence (at D7), the medium is changed:
The basic medium remains the same (DMEM) but is supplemented with 10% of foetal calf serum (FCS) and insulin (5 μg/mL) (SIGMA).
The medium is then changed at D9 and D11.
At D14, D16 and D18, a treatment is made with the composition the effectiveness of which on the leptin synthesis it is sought to verify.
The leptin secreted is determined by means of a sandwich-type Elisa technique re-running with a Quantikine M Mouse Leptin Immunoassay kit.
This ELISA determination uses recombined mouse leptin, expressed in E. coli and antibodies directed against recombinant mouse leptin.
The test uses a “sandwich” immunoenzymatic technique. The microplate wells are lined with a mouse leptin polyclonal antibody.
The standards, controls and samples are deposited in the wells and, at the same moment, all the leptin present binds to the immobilised antibody.
The bound leptin is then detected by a mouse anti-leptin antibody which is coupled to an enzyme peroxidase. A substrate solution is then added into the wells. The enzymatic reaction leads to a blue solution which turns yellow after addition of a quenching solution.
The intensity of the colour measured is proportional to the amount of leptin present. The reading of the optical density is done at 450 nm on the spectrophotometer.
The determination is obtained afterwards of the dose-response curves in relation to the measurement of natural leptin, parallel to the standard curves obtained with “recombinant” Quantikine M standards. The Quantikine M kit thus enables the relative mass values for the natural mouse leptin to be determined.
The optical density measured at 450 nm is proportional to the amount of antibody fixed, which is itself proportional to the amount of leptin present initially. The results are expressed in pg/mL of leptin present in the cell supernatants.
The samples were tested in triplicate.
Three compositions containing 0.25, 1 and 2 μg/mL, respectively, of phytosphingosine or of its hydrochloride, were tested.

[1] = tested on: glycerol-3-phosphate dehydrogenase (G3PDH); assay: G3PDH activity (lipogenesis) in 3T3 F442A preadipocytes treated with media conditioned by treated mature adipocytes; type: cell-based, mouse; conditions: 8 days, control 0.0016
Source text: Thus, the mature adipocytes are firstly treated with PB+PS Secondly, the culture medium which is conditioned with these adipocytes is placed in contact with preadipocytes the maturation of which into adipocytes will be followed. A key enzyme in the process of synthesis of triglycerides is glycerol-3-phosphate dehydrogenase (G3PDH): its specific activity increases considerably during maturation and can thus be used as a precise and sensitive measurement of adipocyte conversion (Pairault J., Green H., Proc. Nat. Acad. Sci. USA, (1979) 76, 5138-42; Koekemoer T. C. et al, Int. J. Biochem. Cell Biol. (1995) 27, 625-32). […] Since G3PDH is a hydrosoluble enzyme, its activity is measured in the supernatant of the cell grindings, in the presence of appropriate substrates (NADH, TEA (triethanolamine)-EDTA, 50 mM, 1 mM). The specific activity is calculated from these determinations. […] Then, the percentage inhibition is calculated of the inhibition of the activity of the G3PDH produced by the substances compared to the controls. […] The consumption of NADH as a function of time is measured by spectrophotometry (KONTRON) at 340 nm. An absorbance variation/minute (Δ Abs/minute) can thus be calculated which corresponds to the initial rate of the enzymatic reaction. […] The total protein content is evaluated by the BCA method (Protein Assay Reagent-PIERCE LTD)

human adipocytes [2] = assay: Release of glycerol by human adipocytes in culture (lipolysis); type: cell-based; conditions: for glycerol (pg/mL) release: 25 μg/mL
Source text: Human adipocytes originating from a plasty of a person, which are marketed by ZEN-BIO (USA), were used at an advanced stage of the adipocyte maturation. The reception of these cells in culture took place 16 days after sowing. […] The properties of Coleus described above for the 3T3F442A murine adipocytes were first of all verified on these human cells: lipolytic activity by measurement of the release of glycerol and non-esterified fatty acids.

human adipocytes [3] = assay: Release of non-esterified fatty acids by human adipocytes in culture; type: cell-based; conditions: dose of 6 ng/mL
Source text: (§1) Human adipocytes originating from a plasty of a person, which are marketed by ZEN-BIO (USA), were used at an advanced stage of the adipocyte maturation. The reception of these cells in culture took place 16 days after sowing. They are cultivated in a specific medium ensuring their differentiation throughout the whole treatment. • D-16: sowing • D0: start of the treatment with the extract of Coleus (PB) and/or phytosphingosine (PS) • D6 to D18: determination of the various parameters. The properties of Coleus described above for the 3T3F442A murine adipocytes were first of all verified on these human cells: lipolytic activity by measurement of the release of glycerol and non-esterified fatty acids.

human adipocytes [4] = assay: Leptin secretion by human adipocytes in culture; type: cell-based; conditions: most effective doses lower than for murine adipocytes
Source text: as §1, with “parameters.” for “parameters. The properties of Coleus described above for the 3T3F442A murine adipocytes were first of all verified on these human cells: lipolytic activity by measurement of the release of glycerol and non-esterified fatty acids.”

[5] = 0.25 μg/mL, day D21 (7 days of treatment)

| SMILES | increase in the secretion of leptin (3T3-F442A adipocytes; 0.25 μg/mL) | leptin (pg/mL) Average in culture supernatants (3T3-F442A adipocytes; [5]) [pg/mL] | stimulation of the leptin secretion (3T3-F442A adipocytes; 1 μg/mL) | leptin (pg/mL) Average in culture supernatants (3T3-F442A adipocytes; 1 μg/mL, day D21) [pg/mL] | stimulation of the leptin secretion (3T3-F442A adipocytes; 2 μg/mL) | leptin (pg/mL) Average in culture supernatants (3T3-F442A adipocytes; 2 μg/mL, day D21) [pg/mL] | O.D. (nmoles NAD+) average ([1]; PB 0, PS 0.5 μg/mL) [nmoles NAD+] | O.D. (nmoles NAD+) average ([1]; PB 0, PS 1 μg/mL) [nmoles NAD+] | glycerol (pg/mL) release (human adipocytes [2]; day 3, control 73.78) [pg/mL] | glycerol (pg/mL) release (human adipocytes [2]; day 6, control 120.8) [pg/mL] | glycerol (pg/mL) release (human adipocytes [2]; day 9, control 147.2) [pg/mL] | glycerol (pg/mL) release (human adipocytes [2]; day 12, control 198.4) [pg/mL] | glycerol (pg/mL) release (human adipocytes [2]; day 15, control 196.3) [pg/mL] | glycerol (pg/mL) release (human adipocytes [2]; day 18, control 230.9) [pg/mL] | glycerol (pg/mL) release (human adipocytes [2]; day 21, control 276.6) [pg/mL] | glycerol (pg/mL) release (human adipocytes [2]; day 23, control 238.9) [pg/mL] | release of glycerol (human adipocytes [2]; dose of 6 ng/mL) | release of non-esterified fatty acids (human adipocytes [3]) | leptin secretion in human adipocytes (human adipocytes [4]) |
| --- | --- | --- | --- | --- | --- | --- | --- | --- | --- | --- | --- | --- | --- | --- | --- | --- | --- | --- | --- |
| CCCCCCCCCCCCCC[C@@H](O)[C@@H](O)[C@@H](N)CO.Cl [Phytosphingosine hydrochloride] | +18% | 1789 | +52% | 2301.3 | +26% | 1907.9 | – | – | – | – | – | – | – | – | – | – | – | – | – |
| CCCCCCCCCCCCCCC(O)C(O)[C@@H](N)CO (stereo in doubt) [phytosphingosine, (2S,3S,4R)-2-amino-1,3,4-octadecanetriol] | more than 18% | 1789 | – | 1563.6 | – | 1428.8 | 0.0014 | 0.00165 | 174.4 | 196.2 | 302.9 | 416.4 | 460.6 | 659.8 | 777.1 | 687 | responsible for a release of glycerol with time | without concomitant release of non-esterified fatty acids | induces an increase of leptin secretion |
